We go through one molecule from US11160796B2, “Anti-androgens for the treatment of non-metastatic castration-resistant prostate cancer” (priority 2017, dated 2021).

Molecules are shown by their SMILES.

The test system of data set [1] is BCRP, OATP1B1, and OATP1B3. To be noted: not told.
Data set [2] in a line: Physicochemical description (ionization, solubility). The source says: The Chemical name is (4-[7-(6-Cyano-5-trifluoromethylpyridin-3-yl)-8-oxo-6-thioxo-5,7-diazaspiro[3.4]oct-5-yl]-2-fluoro-N-methylbenzamide). Apalutamide is a white to slightly yellow powder.
Data set [3] has as its system non-metastatic castration-resistant prostate cancer (NM-CRPC). In words: Phase III study (SPARTAN, Study 1): efficacy. The format is in vivo, human. The note with it: for Metastasis Free Survival (MFS), median: 240 mg once daily + ADT, ITT, BICR. An excerpt: The study consisted of a Screening Phase of up to 35 days before randomization to establish eligibility and document baseline measurements, a double-blind Treatment Phase (28-day treatment cycles; continuous dosing), and a Long-term Follow-up Phase to monitor PFS, survival status, subsequent prostate cancer therapy, PRO, and MRU. […] The randomization was stratified as follows: • PSADT: <6 months vs. >6 months; • Bone-sparing agent use: Yes vs. No; and • Loco-regional disease: N0 vs. N1 (ie, nodal disease).
All patients who were not surgically castrated received ADT continuously throughout the study. […] Systemic corticosteroids were not allowed at study entry. […] Patients randomized to either arm were to continue treatment until disease progression defined by blinded central imaging review (BICR), initiation of new treatment, unacceptable toxicity or withdrawal.
With the softgel capsules only, subjects could switch to a twice daily dosing regimen (4 tables each period) if gastrointestinal issues arose with the once daily schedule. […] For the purposes of this study, a treatment cycle consisted of 4 weeks (28 days).
The primary efficacy endpoint was metastasis-free survival (MFS), defined as the time from randomization to the time of first evidence of BICR-confirmed bone or soft tissue distant metastasis or death due to any cause, whichever occurred first. Metastasis-free survival data for subjects without metastasis or death were censored on the date of the last tumor assessment (or, if no tumor assessment was performed after the baseline visit, at the date of randomization). Censoring rules based on FDA and CHMP guidance were applied for analyses of MFS (referred to in the text as US censoring or ex-US censoring).
Patients were stratified by Prostate Specific Antigen (PSA) Doubling Time (PSADT), the use of bone-sparing agents, and locoregional disease. Patients were required to have a PSADT≤10 months and confirmation of non-metastatic disease by blinded independent central review (BICR).
The major efficacy outcome measure of the study was metastasis-free survival (MFS), defined as the time from randomization to the time of first evidence of BICR-confirmed distant metastasis, defined as new bone or soft tissue lesions or enlarged lymph nodes above the iliac bifurcation, or death due to any cause, whichever occurred first. Additional efficacy endpoints were time to metastasis (TTM), progression-free survival (PFS) which also includes locoregional progression, time to symptomatic progression, and overall survival (OS).

For another data set, the system named is human CYP2B6 and CYP3A4. To be noted: hepatocytes.

For `CNC(=O)c1ccc(N2C(=S)N(c3cnc(C#N)c(C(F)(F)F)c3)C(=O)C23CCC3)cc1F` [apalutamide, 4-[7-(6-cyano-5-trifluoromethylpyridin-3-yl)-8-oxo-6-thioxo-5,7-diazaspiro[3.4]oct-5-yl]-2-fluoro-N-methylbenzamide], the “substrate for BCRP, OATP1B1, and OATP1B3” value in data set [1] is “not BCRP, OATP1B1, and OATP1B3”. Further, the solubility entry in data set [2] (aqueous media over a wide range of pH values) is “practically insoluble”. Further, the ionization result in data set [2] (relevant physiological pH condition) is given as “not ionizable”. Further, the “Metastasis Free Survival (MFS), median” value in data set [3] came out at 41 months. In data set [3] (listed as Apalutamide), the “Metastasis Free Survival (MFS), median” value was determined as 40.5 months. Also, the “decrease in the risk of symptomatic progression” value in data set [3] (compared with placebo) is reported as 55%. Also, in data set [3] (in vivo), the “Progression-free Survival (PFS), median” value came to 40.5 months and the “Time to Metastasis (TTM), median” value was found to be 40.5 months. Besides, in data set [3] (non-stratified analysis), the “MFS HR, subgroup PSA doubling time of >6 months” value is 0.30; the “MFS HR, subgroup PSA doubling time of months” value turned out to be 0.29; the “MFS HR, total study population” value is on record as 0.30. In data set [3] (vs placebo), the “decrease in the risk of distant metastasis or death” value is 72%. Further, in the data set with human CYP2B6 and CYP3A4, the “CYP3A4 and CYP2B6 induction” value is “moderate to strong CYP3A4 and CYP2B6 inducers”.
